Source: patent US7332482B2, “Method for treating benign prostatic hyperplasia” (BioXell S.p.A., priority 2003, dated 2008)
“Also recorded” adds a separate entry of the source. Marks after values point to notes of the source that are not given here.

Key:
5α reductase type 1 = target: T1, 5α reductase type 1 (Homo sapiens, UniProt P18405); experiment: 5α reductase inhibition test in CHO 1827 cells; format: cell-based; conditions: CHO cells transfected with type 1, n=3
T1 construct: host or cells: CHO 1827
T1 sequence (P18405 1-259): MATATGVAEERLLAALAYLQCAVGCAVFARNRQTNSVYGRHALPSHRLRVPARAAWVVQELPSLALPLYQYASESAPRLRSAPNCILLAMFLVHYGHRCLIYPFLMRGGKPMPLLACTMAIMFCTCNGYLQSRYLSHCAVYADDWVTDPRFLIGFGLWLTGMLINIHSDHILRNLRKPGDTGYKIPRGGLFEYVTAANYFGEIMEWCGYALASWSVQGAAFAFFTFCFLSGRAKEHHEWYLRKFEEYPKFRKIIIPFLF
Experimental: (§1) CHO-1827 and CHO-1829 cells, transfected with 5α reductase type 1 (5αR-1) or type 2 (5αR-2), respectively (see Steers W. Urology (2001) 58 p 17-24), were maintained in Ham's F12 medium supplemented with 5% FCS.
(§2) 5α reductase inhibition assay was performed using CHO 1827 cells, transfected with 5αR-1, or CHO 1829 cells, transfected with 5αR-2, as described (see Guarna A, et al. Journal of Medicinal Chemistry (2000) 43 3718-3735.). Compound A was added in a concentration range from 10^−9 to 10^−5 M, using finasteride as a control inhibitor in each experiment.

BPH cells [1] = experiment: BPH cell proliferation assay; format: cell-based, human; conditions: 48 h; for effect on DHT-stimulated BPH cell proliferation: DHT 10 nM; for effect on DHT-stimulated BPH cell proliferation / effect on T-stimulated BPH cell proliferation: Compound A 1 nM, F 1 nM, Cyp 100 nM; for effect on T-stimulated BPH cell proliferation: T 10 nM; for BPH cell proliferation increased by stimulus: T 10 nM or GF 10 ng/ml
Experimental: (§3) Human BPH cells, prepared, maintained and used as previously described in Crescioli C, et al. Journal of Clinical and Endocrinology Metabolism (2000) 85 p 2576-2583, were obtained from prostate tissues derived from 5 patients, who underwent suprapubic adenomectomy for BPH, after informed consent and approval by the Local Ethical Committee.
For all cell proliferation assay, 4×10^4 BPH cells were seeded onto 12-well plates in their growth medium, starved in red- and serum-free medium containing 0.1% BSA for 24 h, and then treated with specific stimuli for 48 h. Cells in phenol red- and serum-free medium containing 0.1% BSA were used as controls. Thereafter, cells were trypsinized, and each experimental point was derived from hemocytometer counting, averaging at least six different fields for each well, as previously reported (see Crescioli C, et al. Journal of Clinical and Endocrinology Metabolism (2000) 85 p 2576-2583). […] Growth assays were also carried out using a fixed concentration of androgens (10 nM) with or without Compound A (1 nM, 10 nM) or the anti-androgens finasteride (F, 1 nM) and cyproterone acetate (Cyp, 100 nM). Growth assays were also performed using a fixed concentration of T (10 nM) or GFs (10 ng/ml) with or without Compound A (10 nM). In the same experiment, each experimental point was repeated in triplicate or quadruplicate and experiments were performed 3 times. Results are expressed as % variation (mean±SEM) over the maximal T or GF-induced stimulation.

5α reductase type 2 = target: T2, 5α reductase type 2 (Homo sapiens, UniProt P31213); experiment: 5α reductase inhibition test in CHO 1829 cells; format: cell-based; conditions: CHO cells transfected with type 2, n=3
T2 construct: host or cells: CHO 1829
T2 sequence (P31213 1-254): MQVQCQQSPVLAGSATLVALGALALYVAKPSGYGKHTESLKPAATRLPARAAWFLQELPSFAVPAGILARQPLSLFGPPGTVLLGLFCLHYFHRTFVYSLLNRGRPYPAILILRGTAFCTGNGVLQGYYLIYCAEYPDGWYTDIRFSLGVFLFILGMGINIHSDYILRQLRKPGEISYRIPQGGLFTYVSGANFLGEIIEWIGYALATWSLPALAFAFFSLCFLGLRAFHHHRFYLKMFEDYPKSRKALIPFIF
Experimental: as §1, §2

rat ventral prostate = experiment: Clusterin expression (Northern, immunohistochemistry) and TUNEL in rat ventral prostate; format: in vivo; conditions: orchidectomized T-supplemented rats; Compound A 300 and 100 μg/Kg, F 40 mg/Kg
Experimental: Total RNA was extracted using RNAFast from Molecular System (San Diego, Calif.). Blotting, labelling, hybridization conditions and probes (rat clusterin 1.5 Kb full-length cDNA and GAPDH 1.2 Kb full-length cDNA) were performed according to the reported procedures (Bettuzzi et al, Biochemical Journal, (1989), 257, p 293-296 and Marinelli et al, Biochemistry and Cell Biology, (1994), 72, p 515-521). Quantitation of the autoradiograms was obtained by densitometric scanning using an LKB Ultrascan XL densitometer.
All the cryostatic sections obtained from controls and treated rats were processed in parallel as previously described (Astancolle et al, Journal of Endocrinology, (2000), 167, p 197-204). For every experimental condition, 3 alternate sections from 3 different rat prostates were examined. […] Counterstaining was performed with haematoxylin, and cover slips were mounted with Eukitt (O. Kindler GmbH & Co, Germany). Digital high-magnification colour images were acquired by a CCD camera through the microscope.
DNA fragmentation in prostate cryostatic sections, assessed by terminal deoxynucleotidyl transferase (TdT)-mediated dUTP nick end-labelling (TUNEL), was performed using the In Situ Cell Death Detection Kit (POD, Roche) as recommended by the manufacturer. TUNEL positive apoptotic nuclei were documented by digital high-magnification colour images acquired by a CCD camera through the microscope. Counterstaining was performed with eosin, and cover slips were mounted with Eukitt (O Kindler GmbH & Co, Germany).

BPH cells [2] = experiment: In situ end labeling (ISEL) of apoptotic BPH cells; format: cell-based, human; conditions: for change in percentage of apoptotic nuclei vs untreated cells: 48 h, Compound A 10 nM, T 10 nM, GFs 10 ng/ml
Experimental: as §3
ISEL was performed onto BPH cells using Apop Tag in situ apoptosis detection kit peroxydase following the manufacturer's instruction. Cells were incubated with T (10 nM), KGF (10 ng/ml) or Des(1-3)IGF-I (10 ng/ml) with or without Compound A (10 nM). The percentage of apoptotic cells (the number of stained cells divided by the total number of cells) was calculated in at least five separate fields per slide in five different slides. Results are expressed as mean±SEM from three separate experiments.

AR = target: T3, AR (Homo sapiens, UniProt P10275); experiment: [3H]R1881 binding assay on cytosol fractions of BPH fragments; design: from tissue; host or cells: human BPH prostatic tissue, cytosol fraction
T3 sequence (P10275 1-920): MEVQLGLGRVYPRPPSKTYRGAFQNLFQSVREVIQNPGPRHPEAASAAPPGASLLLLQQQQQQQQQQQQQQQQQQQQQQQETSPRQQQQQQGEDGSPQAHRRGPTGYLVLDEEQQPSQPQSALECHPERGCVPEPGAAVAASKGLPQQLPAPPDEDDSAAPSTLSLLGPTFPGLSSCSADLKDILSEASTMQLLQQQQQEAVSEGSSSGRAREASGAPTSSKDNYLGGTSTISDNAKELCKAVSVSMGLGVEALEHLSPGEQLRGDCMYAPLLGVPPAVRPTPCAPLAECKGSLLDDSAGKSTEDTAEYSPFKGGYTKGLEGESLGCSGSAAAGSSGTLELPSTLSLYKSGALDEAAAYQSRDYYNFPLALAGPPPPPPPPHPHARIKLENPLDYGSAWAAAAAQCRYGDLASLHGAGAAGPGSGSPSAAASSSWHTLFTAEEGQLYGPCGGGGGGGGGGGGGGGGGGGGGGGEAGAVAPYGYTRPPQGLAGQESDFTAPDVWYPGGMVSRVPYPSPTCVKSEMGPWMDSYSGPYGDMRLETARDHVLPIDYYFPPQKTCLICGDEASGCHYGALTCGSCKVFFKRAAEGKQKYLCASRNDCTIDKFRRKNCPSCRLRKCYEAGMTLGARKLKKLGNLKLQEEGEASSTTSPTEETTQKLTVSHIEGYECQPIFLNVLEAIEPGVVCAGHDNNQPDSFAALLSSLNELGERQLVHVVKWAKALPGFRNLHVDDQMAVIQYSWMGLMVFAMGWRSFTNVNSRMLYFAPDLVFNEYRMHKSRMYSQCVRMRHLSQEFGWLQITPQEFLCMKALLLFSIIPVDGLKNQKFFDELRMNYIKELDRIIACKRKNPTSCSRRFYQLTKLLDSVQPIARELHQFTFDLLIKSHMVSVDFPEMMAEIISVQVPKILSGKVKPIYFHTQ
Experimental: Prostatic tissues for binding assay were obtained from patients who underwent suprapubic adenomectomy for BPH. No pharmacological treatment was performed in the 3 months preceding surgery. After surgery, the tissues were immediately placed in liquid nitrogen and stored at −80° C. until processing.
Protein content was determined by the known method of Bradford, using BSA as a standard.

Molecule | effect on DHT-stimulated BPH cell proliferation (BPH cells [1]) | effect on T-stimulated BPH cell proliferation (BPH cells [1]) | BPH cell proliferation increased by stimulus (BPH cells [1]) [%] | change in percentage of apoptotic nuclei vs untreated cells (BPH cells [2]) [%] | other results
CC(C)(C)NC(=O)[C@H]1CC[C@H]2[C@@H]3CC[C@H]4NC(=O)C=C[C@]4(C)[C@H]3CC[C@]12C [finasteride, 17β-(N,t-butyl)carbamoyl-4-aza-5α-androst-1-en-3-one, reference compound] | effective only against T | antagonized only T-induced cell growth; also recorded: effective only against T | – | – | IC50 (5α reductase type 1): 659 ± 100 nM; IC50 (5α reductase type 2): 53.7 ± 11 nM; clusterin mRNA expression in ventral prostate (Northern) (rat ventral prostate): partially blunted the T-induced down-regulation of clusterin gene expression
C[C@]12CC[C@H]3[C@@H](CCC4=CC(=O)CC[C@@]43C)[C@@H]1CC[C@@H]2O [T, testosterone, reference compound] | – | – | 156±8 | −27 | –
C=C1/C(=C\C=C2/CCC[C@]3(C)[C@@H]([C@H](C)CCCC(C)(C)O)CC[C@@H]23)C[C@@H](O)C[C@@H]1O [calcitriol, 1,25-dihydroxyvitamin D3, reference compound] | – | – | – | – | IC50 (BPH cells [1]; Homo sapiens, read-out: −log IC50, inhibition of BPH cell growth (converted)): 0.0631 nM; maximal inhibition (Imax) of BPH cell growth (BPH cells [1]; unstimulated BPH cells, Imax shared by both secosteroids): 43±1%
CC(=O)O[C@]1(C(C)=O)CC[C@H]2[C@@H]3C=C(Cl)C4=CC(=O)[C@@H]5C[C@@H]5[C@]4(C)[C@H]3CC[C@@]21C [cyproterone acetate, reference compound] | significantly blocked | significantly blocked | – | – | –
C[C@]1(O)CC[C@H]2[C@@H]3CCC4=CC(=O)CCC4=C3C=C[C@@]21C [Compound R1881, reference compound] | – | – | – | – | competition for [3H]-R1881 binding (AR): completely displaced
KGF: Keratinocyte growth factor from Pepro Tech EC (protein, UniProt P21781 32-194, looked up) Fibroblast growth factor 7: CNDMTPEQMATNVNCSSPERHTRSYDYMEGGDIRVRRLFCRTQWYLRIDKRGKVKGTQEMKNNYNIMEIRTVAVGIVAIKGVESEFYLAMNKEGKLYAKKECNEDCNFKELILENHYNTYASAKWTHNGGEMFVALNQKGIPVRGKKTKKEQKTAHFLPMAIT | – | – | 183±5 | −54 | Apoptotic index (%) (BPH cells [2]; GF 10 ng/ml or T 10 nM alone, ISEL): 8.5 ± 0.42^a %
